From PubChem BioAssay AID328 (DTP/NCI, 2004)
“And” between values parts separate entries of the source, which are not always exact repeats. Identical values can stand only once. Toxic doses and inconclusive results are not listed.

Tested on: BDF1 mice, P388 leukemia ip, median survival T/C
Assay: NCI In Vivo Anticancer Drug Screen. Data for tumor model P388 Leukemia (intraperitoneal) in B6D2F1 (BDF1) mice
Conditions: endpoint: median survival time, higher = longer survival
Method in brief: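 Steps: implant the tumour, treat one group with compound and another with vehicle, record survival, then divide treated by control.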

[1] = dose: 50.0 mg/kg/injection, schedule: Q01DX009 (ip), vehicle: saline
[2] = dose: 100.0 mg/kg/injection, schedule: Q01DX009 (ip), vehicle: saline
[3] = dose: 50.0 mg/kg/injection, schedule: Q01DX009 (ip), vehicle: saline with Tween-80
[4] = dose: 100.0 mg/kg/injection, schedule: Q01DX009 (ip), vehicle: saline with Tween-80
[5] = dose: 200.0 mg/kg/injection, schedule: Q01DX009 (ip), vehicle: saline with Tween-80
[6] = dose: 400.0 mg/kg/injection, schedule: Q01DX009 (ip), vehicle: saline with Tween-80
[7] = dose: 25.0 mg/kg/injection, schedule: Q04DX003 (ip), vehicle: saline with Tween-80
[8] = dose: 50.0 mg/kg/injection, schedule: Q04DX003 (ip), vehicle: saline with Tween-80
[9] = dose: 100.0 mg/kg/injection, schedule: Q04DX003 (ip), vehicle: saline with Tween-80
[10] = dose: 200.0 mg/kg/injection, schedule: Q04DX003 (ip), vehicle: saline with Tween-80
[11] = dose: 400.0 mg/kg/injection, schedule: Q04DX003 (ip), vehicle: saline with Tween-80

CC1(COCCOCC2(C)CO2)CO1 (centres undefined)
T/C (dose: 400.0 mg/kg/injection, schedule: Q01DX009 (ip), vehicle: saline): 175 % of control
T/C (dose: 600.0 mg/kg/injection, schedule: Q01DX009 (ip), vehicle: saline): 208 % of control

CN1N=Nc2cccc3cccc1c23
T/C (dose: 25.0 mg/kg/injection, schedule: Q01DX009 (ip), vehicle: saline): 105 % of control
T/C [1]: 100 % of control
T/C [2]: 105 % of control

CC(CCC(C)OS(C)(=O)=O)OS(C)(=O)=O (centres undefined)
T/C (dose: 2.0 mg/kg/injection, schedule: Q01DX010 (ip), vehicle: saline): 100 % of control
T/C (dose: 4.0 mg/kg/injection, schedule: Q01DX010 (ip), vehicle: saline): 95 % of control
T/C (dose: 8.0 mg/kg/injection, schedule: Q01DX010 (ip), vehicle: saline): 118 % of control
T/C (dose: 16.0 mg/kg/injection, schedule: Q01DX010 (ip), vehicle: saline): 122 % of control

COc1ccccc1C(C#N)N1CCCN(C(C#N)c2ccccc2OC)C1c1cc(Cl)cc(Cl)c1O (centres undefined)
T/C [3]: 95 % of control
T/C [4]: 98 % of control
T/C [5]: 98 % of control
T/C [6]: 91 % of control

COc1ccc2c(c1)C(Cc1ccc(Oc3ccc(CC4c5cc(OC)ccc5CC[N+]4(C)C)cc3)cc1)[N+](C)(C)CC2 (centres undefined)
T/C (dose: 0.1 mg/kg/injection, schedule: Q04DX003 (ip), vehicle: saline): 104 % of control
T/C (dose: 0.2 mg/kg/injection, schedule: Q04DX003 (ip), vehicle: saline): 100 % of control
T/C (dose: 0.39 mg/kg/injection, schedule: Q04DX003 (ip), vehicle: saline with Tween-80): 93 % of control
T/C (dose: 0.4 mg/kg/injection, schedule: Q04DX003 (ip), vehicle: saline): 96 % of control

Fc1nc2nc(C(F)(F)F)[nH]c2nc1F
T/C (dose: 10.0 mg/kg/injection, schedule: Q01DX009 (ip), vehicle: saline with Tween-80): 104 % of control
T/C (dose: 20.0 mg/kg/injection, schedule: Q01DX009 (ip), vehicle: saline with Tween-80): 121 % of control
T/C [7]: 105 % of control
T/C (dose: 40.0 mg/kg/injection, schedule: Q01DX009 (ip), vehicle: saline with Tween-80): 120 % of control
T/C [8]: 99 % of control
T/C (dose: 80.0 mg/kg/injection, schedule: Q01DX009 (ip), vehicle: saline with Tween-80): 112 % of control
T/C [9]: 90 % of control and 105 % of control
T/C (dose: 160.0 mg/kg/injection, schedule: Q01DX009 (ip), vehicle: saline with Tween-80): 112 % of control

C=CCN1C=CC(=C/C=C(\C#N)C(=O)OCC)C=C1
T/C [3]: 99 % of control
T/C [4]: 91 % of control
T/C [5]: 99 % of control

COc1cc(C(C)O)cc(OC)c1OC (centres undefined)
T/C [4]: 92 % of control
T/C [9]: 95 % of control
T/C [5]: 92 % of control
T/C [10]: 104 % of control
T/C [11]: 95 % of control

COCC1CCSC1=O (centres undefined)
T/C (dose: 100.0 mg/kg/injection, schedule: Q01DX001 (ip), vehicle: saline with Tween-80): 102 % of control
T/C (dose: 200.0 mg/kg/injection, schedule: Q01DX001 (ip), vehicle: saline with Tween-80): 102 % of control
T/C (dose: 400.0 mg/kg/injection, schedule: Q01DX001 (ip), vehicle: saline with Tween-80): 93 % of control

CCCCCCCCCCCCCC/[N+]([O-])=C/c1ccc([N+](=O)[O-])o1
T/C (dose: 6.25 mg/kg/injection, schedule: Q04DX002 (ip), vehicle: saline with Tween-80): 91 % of control
T/C (dose: 12.5 mg/kg/injection, schedule: Q04DX002 (ip), vehicle: saline with Tween-80): 100 % of control
T/C (dose: 25.0 mg/kg/injection, schedule: Q04DX002 (ip), vehicle: saline with Tween-80): 87 % of control
T/C (dose: 200.0 mg/kg/injection, schedule: Q04DX002 (ip), vehicle: saline with Tween-80): 88 % of control

Cc1ccc(NC(=O)NCC2(C)CC(NC(=O)Nc3ccc(C)cc3)CC(C)(C)C2)cc1 (centres undefined)
T/C (dose: 12.5 mg/kg/injection, schedule: Q01DX009 (ip), vehicle: Klucel (hydroxypropylcellulose) (HPC)): 100 % of control
T/C (dose: 25.0 mg/kg/injection, schedule: Q01DX009 (ip), vehicle: Klucel (hydroxypropylcellulose) (HPC)): 100 % of control
T/C (dose: 50.0 mg/kg/injection, schedule: Q01DX009 (ip), vehicle: Klucel (hydroxypropylcellulose) (HPC)): 100 % of control
T/C (dose: 75.0 mg/kg/injection, schedule: Q01DX009 (ip), vehicle: Klucel (hydroxypropylcellulose) (HPC)): 90 % of control
T/C (dose: 115.0 mg/kg/injection, schedule: Q01DX009 (ip), vehicle: Klucel (hydroxypropylcellulose) (HPC)): 90 % of control
T/C (dose: 170.0 mg/kg/injection, schedule: Q01DX009 (ip), vehicle: Klucel (hydroxypropylcellulose) (HPC)): 90 % of control

CC(=O)c1cccc(N)c1
T/C (dose: 100.0 mg/kg/injection, schedule: Q01DX001 (ip), vehicle: Klucel (hydroxypropylcellulose) (HPC)): 104 % of control
T/C (dose: 100.0 mg/kg/injection, schedule: Q01DX009 (ip), vehicle: Klucel (hydroxypropylcellulose) (HPC)): 100 % of control
T/C (dose: 100.0 mg/kg/injection, schedule: Q04DX003 (ip), vehicle: Klucel (hydroxypropylcellulose) (HPC)): 100 % of control
T/C (dose: 200.0 mg/kg/injection, schedule: Q01DX001 (ip), vehicle: Klucel (hydroxypropylcellulose) (HPC)): 100 % of control
T/C (dose: 200.0 mg/kg/injection, schedule: Q01DX009 (ip), vehicle: Klucel (hydroxypropylcellulose) (HPC)): 91 % of control
T/C (dose: 200.0 mg/kg/injection, schedule: Q04DX003 (ip), vehicle: Klucel (hydroxypropylcellulose) (HPC)): 109 % of control
T/C (dose: 400.0 mg/kg/injection, schedule: Q01DX001 (ip), vehicle: Klucel (hydroxypropylcellulose) (HPC)): 113 % of control
T/C (dose: 400.0 mg/kg/injection, schedule: Q01DX009 (ip), vehicle: Klucel (hydroxypropylcellulose) (HPC)): 95 % of control
T/C (dose: 400.0 mg/kg/injection, schedule: Q04DX003 (ip), vehicle: Klucel (hydroxypropylcellulose) (HPC)): 109 % of control

Cc1c2ccccc2cc2cccc[n+]12
T/C (dose: 0.63 mg/kg/injection, schedule: Q01DX010 (ip), vehicle: saline): 100 % of control
T/C (dose: 1.25 mg/kg/injection, schedule: Q01DX010 (ip), vehicle: saline): 100 % of control
T/C (dose: 2.5 mg/kg/injection, schedule: Q01DX010 (ip), vehicle: saline): 105 % of control and 120 % of control
T/C (dose: 10.0 mg/kg/injection, schedule: Q01DX010 (ip), vehicle: saline): 150 % of control
T/C (dose: 40.0 mg/kg/injection, schedule: Q04DX003 (ip), vehicle: saline): 150 % of control
T/C (dose: 80.0 mg/kg/injection, schedule: Q04DX003 (ip), vehicle: saline): 100 % of control

CN(C)c1ccc(/C=C\c2ccnc3ccccc23)cc1Br
T/C (dose: 12.5 mg/kg/injection, schedule: Q01DX009 (ip), vehicle: saline with Tween-80): 107 % of control
T/C (dose: 25.0 mg/kg/injection, schedule: Q01DX009 (ip), vehicle: saline with Tween-80): 94 % of control
T/C [3]: 99 % of control
T/C [4]: 89 % of control

C(=N/c1ncn[nH]1)/Nc1ncn[nH]1
T/C (dose: 12.5 mg/kg/injection, schedule: Q01DX009 (ip), vehicle: suspension in saline): 100 % of control
T/C (dose: 25.0 mg/kg/injection, schedule: Q01DX009 (ip), vehicle: suspension in saline): 113 % of control
T/C (dose: 50.0 mg/kg/injection, schedule: Q01DX009 (ip), vehicle: suspension in saline): 118 % of control
T/C (dose: 100.0 mg/kg/injection, schedule: Q01DX009 (ip), vehicle: suspension in saline): 96 % of control

COc1ccc(OC)c(C(=O)CC(O)(C(F)(F)F)C(F)(F)F)c1
T/C [4]: 95 % of control
T/C [9]: 120 % of control
T/C [5]: 108 % of control
T/C [10]: 110 % of control
T/C [6]: 104 % of control
T/C [11]: 100 % of control

CC(/C=N/N=C(N)N)=N/N=C(N)N
T/C [2]: 150 % of control
T/C (dose: 150.0 mg/kg/injection, schedule: Q01DX009 (ip), vehicle: saline with Tween-80): 90 % of control

COc1cc2c3cc1Oc1c(OC)c(OC)cc4c1C(Cc1ccc(OC(C)=O)c(c1)Oc1ccc(cc1)CC3N(C)CC2)N(C)CC4 (centres undefined)
T/C (dose: 12.5 mg/kg/injection, schedule: Q04DX003 (ip), vehicle: saline with Tween-80): 100 % of control
T/C [7]: 109 % of control
T/C [8]: 100 % of control
T/C [10]: 95 % of control
T/C [11]: 90 % of control

Cn1nnc(CC(=O)O)n1
T/C [1]: 110 % of control
T/C [2]: 101 % of control
T/C (dose: 200.0 mg/kg/injection, schedule: Q01DX009 (ip), vehicle: saline): 99 % of control

COc1cc([N+](=O)[O-])c(C)cc1NC(=O)c1ccc(OC)c(OC)c1
T/C (dose: 0.78 mg/kg/injection, schedule: Q01DX009 (ip), vehicle: saline): 100 % of control
T/C (dose: 1.56 mg/kg/injection, schedule: Q01DX009 (ip), vehicle: saline): 115 % of control
T/C (dose: 3.12 mg/kg/injection, schedule: Q01DX009 (ip), vehicle: saline): 88 % of control
T/C (dose: 6.25 mg/kg/injection, schedule: Q01DX009 (ip), vehicle: saline): 86 % of control
